We go through one compound from BindingDB's records for doi:10.1021/jm049513x (University of Bonn, 2005).

Molecules are shown by their SMILES.

The nature of this assay: Percent inhibition of [3H]PSB-11 binding to adenosine A3 receptor at 10 uM.

`CCCn1c(=O)c2nc(C3CC(C)(C)N([O])C(C)(C)C3)[nH]c2n(CCC)c1=O` registered a Ki of 45 nM.

As usually defined, the Ki is the equilibrium dissociation constant of an inhibitor or competing ligand from its target. Low readings indicate tighter binding, high ones weaker binding.
